The subject of one series is CTLL cell line. The series can be described thus: CTLL cell line proliferation, 3H thymidine incorporation. In kind it is cell-based. The settings on record: for CTLL proliferation: control experiments; for CTLL responsiveness to retinol and AR: with recombinant IL-2, broad dose ranges, data not shown. As for the experimental part: (§1) Murine thymocytes (2×10^5 /well in triplicates) were cultured in ITLB medium in 96-well plates coated with 10 μg/ml anti-CD3^ε mAB (12) as described (3). […] Cell proliferation was tested on day 3 by ^3 H thymidine incorporation into DNA. […] The results of cell proliferation assays performed at 72 hours are shown. […] CTLL proliferation was measured by ^3 H thymidine incorporation into DNA (FIG. 4D). The standard deviation of triplicate measurements were <10%.

Series [1] deals with human lymphoblastoid cell lines. Nature of the series: B lymphoblastoid cell proliferation, 3H thymidine incorporation (Hom 2, Jest, Ducaf). The format is cell-based. The settings on record: several randomly selected lines, FIG. 2D. On the procedure:
(§2) Human B lymphoblastoid cells (e.g., cell line 5/2) were cultured in medium RPMI 1640 with 7% fetal calf serum. On the day of the assay, cells were washed and transferred to serum-free medium, RPMI 1640 supplemented with insulin, transferrin, linoleic acid, and bovine albumin (ITLB medium) as described (3). Test reagents at indicated concentrations were added to triplicate cultures of […] in 96 well plates (final volume of 200 μl/well) and cell proliferation tested 1 day (FIGS. 2B, 2C, 2D) or 3 days later (FIG. 2A) by ^3 H thymidine incorporation into DNA. […] Three additional human lymphoblastoid cell lines, Hom 2, Jest and Ducaf were tested under the conditions specified for FIG. 2A (FIG. 2D).

Series [2] has as its target T1, serum retinol binding protein (RBP) (Homo sapiens, UniProt P02753).
T1 construct: Human RBP was purified from human serum; from tissue; host or cells: human serum
The series can be described thus: Dissociation constant to serum retinol binding protein by fluorometric titration. As for the experimental part: (§3) Apo-protein (1-3 μM) was titrated with the appropriate all-trans-retinoid dissolved in ethanol and the titration was followed by measuring the increase in the fluorescence of the retinoids upon binding. Reaction mixtures included 150 mM NaCl, 0.1 mM DTT, and 25 mM HEPES; pH's were 7.0 and 7.4, respectively. […] Data analyses were performed as described by Cogan et al. (14). Human RBP was purified from human serum by means of a transthyretin column (15). Human CRBP I and CRABP I were gifts from Dr. W. S. Blaner (Columbia University, New York, N.Y.) and Dr. J. Napoli (SUNY, Buffalo, N.Y.), respectively.

A further series relates to 14-HRR synthesis. Nature of the series: Metabolic rate of 14-HRR synthesis from 3H labelled retinol. The format is cell-based. Particulars: hundredfold excess of AR, data not shown. From the text: Therefore, competitive inhibition at the level of CRBP is a realistic possibility to explain the retinol-AR antagonism. […] By inference, a separate 14-HRR binding protein/receptor, as yet to be defined, may exist.

For the next series, the system named is murine B cell lymphoma. The series can be described thus: Inhibition of murine B cell lymphoma by AR. In kind it is cell-based.
The test system of another series is interleukin-2 (IL-2). Nature of the series: IL-2 release by stimulated thymocytes, CTLL assay. The settings on record: for IL-2 production: presence or absence of retinol or 14-HRR, previous unpublished work. The format is cell-based, murine. As for the experimental part: as §1
For the next series, the system named is SF 21 cells. Nature of the series: Metabolites of [3H] retinol in SF 21 cells, HPLC. The format is in vitro ADME, insect. Particulars: SF 21, 4 hours, FIG. 1B. On the procedure: (§4) After 4 hours (FIGS. 1A and 1B) or after 16 hours (FIG. 1C) retinoids were extracted from the washed cell pellet according to the procedure of McClean et al. (16). Retinoids were separated on an analytical C18 reversed-phase column and detected with an on-line scintillation counter using the methodology described in Buck et al. (4). […] The peak eluting at minute 29 is the all-trans anhydroretinol, whereas the companion peaks at minute 27 and 28 represent cis-isomers (14). All isomers yield spectra with characteristic vibronic fine structure similar to the spectrum of all-trans AR.

Series [3] has as its target T2, cellular retinol binding protein (CRBP I) (Homo sapiens, UniProt P09455).
T2 sequence (P09455 1-135): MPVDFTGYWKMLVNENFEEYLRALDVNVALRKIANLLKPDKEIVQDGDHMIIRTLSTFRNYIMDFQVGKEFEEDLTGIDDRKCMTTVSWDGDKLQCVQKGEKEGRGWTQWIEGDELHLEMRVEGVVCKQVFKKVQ
The series can be described thus: Dissociation constant to cellular retinol binding protein by fluorometric titration. The settings on record: for Kd: fluorometric titration, 150 mM NaCl, 0.1 mM DTT, 25 mM HEPES. On the procedure: as §3

In series [4] the target is cellular retinoic acid binding protein (CRABP I) (Homo sapiens, UniProt P29762). Nature of the series: Dissociation constant to cellular retinoic acid binding protein by fluorometric titration. The settings on record: no binding = no significant binding could be detected. On the procedure:
as §3

The subject of series [5] is lymphocytes. The series can be described thus: Cultures of lymphocytes with 14-HRR as agonist. The format is cell-based. Particulars: FIGS. 2B and 4B.
For series [6], the system named is Murine thymocytes. The series can be described thus: Activation of murine thymocytes with anti-CD3, 3H thymidine incorporation. In kind it is cell-based. On the procedure:
as §1

In series [7] the test system is Human lymphoblastoid 5/2 cells. Nature of the series: Metabolites of [3H] retinol in lymphoblastoid 5/2 cells, HPLC. In kind it is in vitro ADME. Particulars: 5/2, 16 hours, FIG. 1C. On the procedure:
as §4

Another series concerns DU145. Nature of the series: Tumor cell sensitivity to anhydroretinol, prostate carcinoma. In kind it is cell-based. The settings on record: DU145, FIG. 6A. An excerpt: (§5) FIGS. 6A-6B show titrations for the inhibition by AR of prostate carcinoma cell lines DU145, PC-3 and LNCAP.
For a further series, the system named is LNcAP. The description is as above. The settings on record: FIG. 6C. In kind it is cell-based.
From the text: as §5

The test system of the next series is SF-9 cells. Nature of the series: Metabolites of [3H] retinol in SF-9 cells, HPLC. The format is in vitro ADME, insect. The settings on record: SF-9, 4 hours, FIG. 1A. On the procedure:
as §4

Series [8] deals with Human B lymphoblastoid cells (5/2). Nature of the series: B lymphoblastoid cell proliferation, 3H thymidine incorporation. In kind it is cell-based. As for the experimental part:
as §2

Series [9] concerns lymphocytes. The series can be described thus: Metabolism by lymphocytes to retinol or 14-HRR. The format is in vitro ADME. Particulars: unpublished data.
In a further series the test system is B lymphocyte. Nature of the series: B lymphocyte proliferation (summary statement). In kind it is cell-based.
The test system of a further series is resting T lymphocytes. The series can be described thus: Activation of resting T lymphocytes (summary statement). The format is cell-based.
In series [10] the test system is Murine thymocytes. Particulars: T cell receptor-generated signals, serum-free medium, ref. (3); cited from earlier work.
The test system of series [11] is Il-2 dependent TH cell clones and T cell hybridoma. Nature of the series: Growth of Il-2 dependent TH cell clones and T cell hybridoma. In kind it is cell-based. The settings on record: previous unpublished observations.
For another series, the system named is IL-2 receptor. Nature of the series: IL-2 receptor expression of activated T cells. The format is cell-based. The settings on record: presence or absence of retinol or 14-HRR, previous unpublished work.
In series [12] the test system is T cell leukemia line Jurkat. The series can be described thus: Jurkat T cell leukemia growth, viable cell count with trypan blue. The format is cell-based, human. An excerpt: Viable cells in each culture were counted. On days 4 and 6 nutrients were replenished.
The T cell leukemia line Jurkat was transferred from normal, FCS-containingmedium to serum-free medium ITLB. […] Cells were counted daily differentially in the presence of trypan blue, and the total number of cells generated in each culture plotted in FIG. 3A. It is evident that cells deprived of retinol decline in numbers as compared to cells with retinol.

Where two headings read alike, the source gives them in different places.

cellular retinoic acid binding protein (CRABP I), sequence (P29762 whole entry): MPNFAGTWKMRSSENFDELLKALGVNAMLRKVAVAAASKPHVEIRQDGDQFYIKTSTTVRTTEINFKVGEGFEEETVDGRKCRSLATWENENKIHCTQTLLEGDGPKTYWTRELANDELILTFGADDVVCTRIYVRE

Take `C=CC(C)=CC=CC(C)=CC=C1C(C)=CCCC1(C)C` [AR, Anhydroretinol]: in the series with CTLL cell line, the CTLL proliferation result is recorded as “completely inert”. Further, the “CTLL responsiveness to retinol and AR” value in the series with CTLL cell line is listed as “independent of either retinoid”. Also, the “sensitivity to inhibition by AR” value (in series [1]; in the series on murine B cell lymphoma) was “all proved sensitive to inhibition” each time. Besides, the Kd in [2] (fluorometric titration, 150 mM NaCl, 0.1 mM DTT, 25 mM HEPES, read-out: dissociation constant RBP) worked out at 20 nM; in series [3], 23 nM. Also, in the series on 14-HRR synthesis, the “metabolic rate of 14-HRR synthesis” value is on record as “no change”. Besides, the IL-2 release result in the series with interleukin-2 (IL-2) (supernatants after 18 hours, FIG. 4D) is recorded as “did not interfere with IL-2 release”. Also, the results for the “AR as metabolite of [3H] retinol” value (with SF 21 cells; in [7]; in the series on SF-9 cells) were “predominant metabolite”, “also produced AR” and “undetectable”, respectively. In addition, the “dissociation constant CRABP I (binding in words)” value (shortened to “dissociation constant CRABP I”) in series [4] is “no binding”. For the same compound, the “inhibition of lymphocyte cultures with 14-HRR as agonist” value with lymphocytes [5] is on record as “reversibly inhibits”. Moreover, the “thymidine uptake of cycling thymocytes” value in the series with Murine thymocytes [6] (AR given 2 days after activation, FIG. 4C) is on record as “able to reduce the thymidine uptake of cycling thymocytes”. Moreover, the “inhibition of thymocyte activation” value in the series on Murine thymocytes [6] (retinol or 14-HRR as cofactor, anti-CD3, FIGS. 4A, 4B) was “pronounced”. Besides, the “inhibition by AR, relative sensitivity” value in the series with DU145 is “highest sensitivity”; with LNcAP, “appears to be insensitive”. For the same compound, the “antagonism of 14-HRR” value in [8] (AR 5×10^-6 M vs 1.3×10^-6 M 14-HRR, FIG. 2B) is “clear antagonism”. For the same compound, the antagonism of retinol result in [8] (AR 5×10^-6 M vs 3.7×10^-6 M retinol, FIG. 2A) is “clear antagonism”. Also, in [8] (FIG. 2A), the “support of B cell proliferation” value is on record as “nor does it support B cell proliferation”. The “inhibition of B cell cultures” value in [8] (graded concentrations of fetal calf serum (FIG. 2C) or RBP/retinol complex (data not shown)) was “strongly inhibitory”. Besides, the ID50 values result in series [8] (graded concentrations of fetal calf serum or RBP/retinol complex) is recorded as “comparable to those seen in retinol-supplemented cultures”. In addition, in series [8] (serum-free medium supplemented with retinol or 14-HRR), the “inhibitory dose (ID50)” value is listed as “dependent on the agonist concentration”. In series [8] (serum-free medium with retinol or 14-HRR, FIGS. 2A, 2B), the “competitive antagonism of retinol or 14-HRR” value was “competitive antagonist”. In addition, the “growth inhibition of B cell cultures” value in series [8] (ten percent fetal bovine serum containing medium, FIG. 2C) is given as “strong growth inhibition”. Besides, the “metabolism by lymphocytes to retinol or to 14-HRR” value with lymphocytes [9] is “not metabolized”. The B lymphocyte proliferation result in the series with B lymphocyte is on record as “block B lymphocyte proliferation”. Further, in the series on B lymphocyte, the “aid to B cell proliferation” value is listed as “not to aid B cell proliferation”. In addition, the “activation of resting T lymphocytes” value with resting T lymphocytes is recorded as “block B lymphocyte proliferation as well as activation of resting T lymphocytes”.
Take `CC(C=CC=C(C)C(O)CO)=CC=C1C(C)=CCCC1(C)C` (stereo not drawn) [Compound 14-HRR, 14-hydroxy-4,14-retro-retinol]: the CTLL proliferation entry in the series on CTLL cell line is reported as “completely inert”. The compound further displayed a Kd in [2] of 120 nM. The IL-2 production entry in the series with interleukin-2 (IL-2) was “unaffected”. Further, the “binding to CRBP” value in [3] was “does not bind to CRBP with appreciable affinity”. Moreover, the “dissociation constant CRBP I (binding in words)” value in series [3] (no binding = no significant binding could be detected) is “no binding”. Moreover, in series [4], the “dissociation constant CRABP I” value is reported as “no binding”. In addition, in the series on Murine thymocytes [10], the “activation of resting thymocytes, cofactor dependence” value is “dependent on retinoid cofactors”. Further, in [11], the “growth dependence on retinol and 14-HRR” value is “grow independently”. For the same compound, in the series with IL-2 receptor, the IL-2 receptor expression entry is “unaffected”.
In the case of `CC1=C(/C=C/C(C)=C/C=C/C(C)=C/CO)C(C)(C)CCC1` [retinol, all-trans retinol], in the series on CTLL cell line, the CTLL proliferation result is reported as “completely inert”; the “CTLL responsiveness to retinol and AR” value is “independent of either retinoid”. The IL-2 production result in the series on interleukin-2 (IL-2) is reported as “unaffected”. The compound also came in with a Kd in series [3] of 13 nM. In addition, in [4], the “dissociation constant CRABP I” value is listed as “no binding”. For the same compound, in the series on Murine thymocytes [10], the “activation of resting thymocytes, cofactor dependence” value was “dependent on retinoid cofactors”. Further, in [12] (after day 6), the “rescue of Jurkat cells on reintroduction of retinol” value was “allows rescue of the cells”. Besides, the “dependence of Jurkat cells on retinol” value in series [12] (serum-free medium ITLB, 4×10^-6 M retinol) is recorded as “retinol-dependent”. The “growth dependence on retinol and 14-HRR” value in series [11] is recorded as “grow independently”. Besides, the IL-2 receptor expression entry in the series with IL-2 receptor was “unaffected”.
